Test results as given in patent US20250255821A1, “SOLID DISPERSIONS COMPRISING A SGC STIMULATOR” (Cyclerion Therapeutics, Inc., priority 2015, published 2025).

Experiment: Solubility of Compound I in aqueous media
Assay type: physicochemical
Details: pH independent

Question: For `OC(CNc1nc(-c2cc(-c3ccon3)n(Cc3ccccc3F)n2)ncc1F)(C(F)(F)F)C(F)(F)F` [Compound I, 1,1,1,3,3,3-hexafluoro-2-(((5-fluoro-2-(1-(2-fluorobenzyl)-5-(isoxazol-3-yl)-1H-pyrazol-3-yl)pyrimidin-4-yl)amino)methyl)propan-2-ol], which “Solubility in aqueous media” value is on record?
Answer: low solubility
